Source: patent publication US6635641B2 (Agouron Pharmaceuticals, Inc., priority 2000, dated 2003)

Molecular target: T1, phosphorylated VEGF-R2Δ50 (Homo sapiens, UniProt P35968, DEL940-989/E990V)
T1 construct: VEGF-R2Δ50 contains residues 806-939 and 990-1171; made in house; host or cells: baculovirus/insect cells
Test: VEGF-R2 ELISA assay (phosphogastrin formation)
Assay type: biochemical
Conditions: @ 10 μM (ELISA); read-out: FLVK-P percent inhibition (ELISA)
From the text: A construct (VEGF-R2Δ50) of the cytosolic domain of human vascular endothelial growth factor receptor 2 (VEGF-R2) lacking the 50 central residues of the 68 residues of the kinase insert domain was expressed in a baculovirus/insect cell system. Of the 1356 residues of full-length VEGF-R2, VEGF-R2Δ50 contains residues 806-939 and 990-1171, and also one point mutation (E990V) within the kinase insert domain relative to wild-type VEGF-R2. See commonly assigned, co-pending U.S. patent application Ser. No. 09/390,326, filed Sep. 7, 1999, incorporated by reference herein, for discussion of VEGF constructs and expression systems. Autophosphorylation of the purified construct was performed by incubation of the enzyme at a concentration of 4 μM in the presence of 3 mM ATP and 40 mM MgCl2 in 100 mM Hepes, pH 7.5, containing 5% glycerol and 5 mM DTT, at 4° C. for 2 h. […]
Formation of phosphogastrin was monitored using biotinylated gastrin peptide (1-17) as substrate. […] The activity of horseradish peroxidase was monitored using 2,2′-azino-di-[3-ethylbenzathiazoline sulfonate(6)] diammonium salt (ABTS). […] The horseradish peroxidase reaction was quenched by addition of acid (H2SO4), followed by absorbance reading at 405 nm. Ki values were determined by measuring enzyme activity in the presence of varying concentrations of test compounds. The data were analyzed using Enzyme Kinetic and Kaleidagraph software.

T1 sequence (P35968 with tags, fused parts or gaps DEL940-989/E990V limits assumed): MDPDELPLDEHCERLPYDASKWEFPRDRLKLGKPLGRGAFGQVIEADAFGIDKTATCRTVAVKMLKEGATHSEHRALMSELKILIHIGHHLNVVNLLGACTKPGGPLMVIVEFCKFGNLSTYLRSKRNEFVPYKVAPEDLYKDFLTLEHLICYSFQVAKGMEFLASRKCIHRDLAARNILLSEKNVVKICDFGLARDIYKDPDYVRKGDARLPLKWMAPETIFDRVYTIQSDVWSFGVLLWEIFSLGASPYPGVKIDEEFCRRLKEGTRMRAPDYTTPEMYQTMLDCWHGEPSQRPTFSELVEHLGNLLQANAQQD

inhibition at 10 µM: 62%
Compound: O=C(NCc1ccc2c(c1)OCO2)c1cccc(CSc2ncnc3[nH]ncc23)c1 [Example B-6, N-(1,3-Benzodioxyl-5-ylmethyl)-3-[(1H-pyrazolo[3,4-d]pyrimidin-4-yl)sulfanylmethyl]benzamide]
